US8871754B2, “Compounds and compositions for the treatment of parasitic diseases” (IRM LLC, priority 2012, dated 2014)

Test system: P. falciparum (NF54 or 3D7 strain) in infected human erythrocytes
Experiment: Assay for P. falciparum proliferation in infected human blood cells (SYBR Green)
Format: cell-based
Conditions: Plasmodium falciparum, Erythrocyte; NF54 or 3D7 strain, 72 hours, SYBR Green fluorescence; read-out: EC50 (nM), inhibitory efficacy in delaying P. falciparum proliferation in infected human blood cells
Experimental: Assay for P. falciparum Proliferation in Infected Human Blood Cells
Compounds of the invention can be assayed to measure their capacity to inhibit proliferation of P. falciparum parasitemia in infected red blood cells. This parasite proliferation assay measures the increase in parasite DNA content using a DNA intercalating dye, SYBR Green® (INVITROGEN®) which has a high affinity for double stranded DNA.
NF54 or 3D7 P. falciparum strain is grown in complete culturing media until parasitemia reaches 3% to 8% with O+ human erythrocytes. […] 20 μl of screening media is dispensed into 384 well assay plates. 50 nl of compounds of the invention (in DMSO), including antimalarial controls (mefloquine, pyrimethamine and artemisinin), are then transferred into the assay plates, as well as DMSO alone to serve as a negative control for inhibition. Then 30 μl of a suspension of a NF54 or 3D7 P. falciparum infected erythrocytes in screening media is dispensed into the assay plates such that the final hematocrit is 2.5% with a final parasitemia of 0.3%. The plates are placed in a 37° C. incubator for 72 hours in a low oxygen environment containing 93% N2, 4% CO2, and 3% O2 gas mixture. 10 μl of lysis buffer (saponin, triton-X, EDTA) containing a 10× solution of SYBR Green I® in RPMI media is dispensed into the plates. The plates are lidded and kept at room temperature overnight for the lysis of the infected red blood cells. The fluorescence intensity is measured (excitation […], emission 530 nm) using the Envision™ system (Perkin Elmer). The percentage inhibition of 50%, […], is calculated for each compound.

| SMILES | EC50 [nM] |
| --- | --- |
| C[C@@H](N)C(=O)Nc1ccc(-c2cnn3ccc(C(=O)N(C)c4ccc(C#N)cc4)cc23)cc1 [Example 44, (R)-3-(4-(2-aminopropanamido)phenyl)-N-(4-cyanophenyl)-N-methylpyrazolo[1,5-a]pyridine-5-carboxamide] | 1 |
| CC(C)[C@H](N)C(=O)Nc1ccc(-c2cnn3ccc(C(=O)N(C)c4ccc(C#N)cc4)cc23)cc1 [Example 45, (S)-3-(4-(2-amino-3-methylbutanamido)phenyl)-N-(4-cyanophenyl)-N-methylpyrazolo[1,5-a]pyridine-5-carboxamide] | 16 |
| CN(C(=O)c1ccn2ncc(-c3ccc(NC(=O)[C@@H](N)C4CCCCC4)cc3)c2c1)c1ccc(C#N)cc1 [Example 46, (S)-3-(4-(2-amino-2-cyclohexylacetamido)phenyl)-N-(4-cyanophenyl)-N-methylpyrazolo[1,5-a]pyridine-5-carboxamide] | 18 |
| CN(C(=O)Nc1ccc(F)cc1)c1ccn2ncc(-c3ccc(C(F)(F)F)cc3)c2c1 [Example 47, 3-(4-fluorophenyl)-1-methyl-1-(3-(4-(trifluoromethyl)phenyl)pyrazolo[1,5-a]pyridin-5-yl)urea] | > 9000 |
| CN(C(=O)c1ccc(C(C)(F)F)nc1)c1ccn2ncc(-c3ccc(C(F)(F)F)cc3)c2c1 [Example 48, 6-(1,1-difluoroethyl)-N-methyl-N-(3-(4-(trifluoromethyl)phenyl)pyrazolo[1,5-a]pyridin-5-yl)nicotinamide] | 288 |
| CN(C(=O)c1ccc(C2CC2)nc1)c1ccn2ncc(-c3ccc(C(F)(F)F)cc3)c2c1 [Example 49, 6-cyclopropyl-N-methyl-N-(3-(4-(trifluoromethyl)phenyl)pyrazolo[1,5-a]pyridin-5-yl)nicotinamide] | 2290 |
| CN(C(=O)c1ccc(C2CC2)cc1)c1ccn2ncc(-c3ccc(C(F)(F)F)cc3)c2c1 [Example 50, 4-cyclopropyl-N-methyl-N-(3-(4-(trifluoromethyl)phenyl)pyrazolo[1,5-a]pyridin-5-yl)benzamide] | 3850 |
| CN(C(=O)c1ccc(F)cn1)c1ccn2ncc(-c3ccc(C(F)(F)F)cc3)c2c1 [Example 51, 5-fluoro-N-methyl-N-(3-(4-(trifluoromethyl)phenyl)pyrazolo[1,5-a]pyridin-5-yl)picolinamide] | 60 |
| CN(C(=O)c1ccc(S(C)(=O)=O)cc1)c1ccn2ncc(-c3ccc(C(F)(F)F)cc3)c2c1 [Example 52, N-methyl-4-(methylsulfonyl)-N-(3-(4-(trifluoromethyl)phenyl)pyrazolo[1,5-a]pyridin-5-yl)benzamide] | 13 |
| CN(C(=O)c1ccn2ncc(-c3cnc4[nH]ccc4c3)c2c1)c1ccc(C#N)cn1 [Example 53, N-(5-cyanopyridin-2-yl)-N-methyl-3-(1H-pyrrolo[2,3-b]pyridin-5-yl)pyrazolo[1,5-a]pyridine-5-carboxamide] | 1 |
| CN(C(=O)c1ccc(Cl)cc1)c1ccn2ncc(-c3ccc(C(F)(F)F)cc3)c2c1 [Example 55, 4-chloro-N-methyl-N-(3-(4-(trifluoromethyl)phenyl)pyrazolo[1,5-a]pyridin-5-yl)benzamide] | 32 |
| CN(C(=O)c1ccc(F)cc1)c1ccn2ncc(-c3ccc(C(N)=O)cc3)c2c1 [Example 56, N-(3-(4-carbamoylphenyl)pyrazolo[1,5-a]pyridin-5-yl)-4-fluoro-N-methylbenzamide] | 8 |
| CNc1nnc(-c2ccc(-c3cnn4ccc(N(C)C(=O)c5ccc(F)cc5)cc34)cc2)s1 [Example 57, 4-fluoro-N-methyl-N-(3-(4-(5-(methylamino)-1,3,4-thiadiazol-2-yl)phenyl)pyrazolo[1,5-a]pyridin-5-yl)benzamide] | 4 |
| CN(C(=O)c1ccn2ncc(-c3cnc4[nH]ccc4c3)c2c1)c1ccc(S(C)(=O)=O)cn1 [Example 58, N-methyl-N-(5-(methylsulfonyl)pyridin-2-yl)-3-(1H-pyrrolo[2,3-b]pyridin-5-yl)pyrazolo[1,5-a]pyridine-5-carboxamide] | 30 |
| Cc1ccc(-c2cnn3ccc(C(=O)N(C)c4ccc(C#N)cn4)cc23)nc1 [Example 59, N-(5-cyanopyridin-2-yl)-N-methyl-3-(5-methylpyridin-2-yl)pyrazolo[1,5-a]pyridine-5-carboxamide] | 228 |
| COc1ccc(-c2cnn3ccc(C(=O)N(C)c4ccc(C#N)cn4)cc23)nc1 [Example 60, N-(5-cyanopyridin-2-yl)-3-(5-methoxypyridin-2-yl)-N-methylpyrazolo[1,5-a]pyridine-5-carboxamide] | 683 |
| CN(C(=O)c1ccn2ncc(-c3ccc(C(N)=O)cn3)c2c1)c1ccc(C#N)cn1 [Example 61, 3-(5-carbamoylpyridin-2-yl)-N-(5-cyanopyridin-2-yl)-N-methylpyrazolo[1,5-a]pyridine-5-carboxamide] | 20 |

The remaining lines, values ahead:

| EC50 [nM] | SMILES |
| --- | --- |
| 6 | Cc1ccc(N(C)C(=O)c2ccn3ncc(-c4ccc(C(N)=O)cc4)c3c2)nc1 [Example 63, 3-(4-carbamoylphenyl)-N-methyl-N-(5-methylpyridin-2-yl)pyrazolo[1,5-a]pyridine-5-carboxamide] |
| 20 | CNC(=O)c1ccc(-c2cnn3ccc(C(=O)N(C)c4ccc(F)cc4)cc23)cc1 [Example 64, N-(4-fluorophenyl)-N-methyl-3-(4-(methylcarbamoyl)phenyl)pyrazolo[1,5-a]pyridine-5-carboxamide] |
| 504 | Cc1ccc(N(C)C(C)c2ccn3ncc(-c4ccc(C(N)=O)cc4)c3c2)nc1 (centres unmarked) [Example 65, 4-(5-(1-(methyl(5-methylpyridin-2-yl)amino)ethyl)pyrazolo[1,5-a]pyridin-3-yl)benzamide] |
| 49 | CC(c1ccn2ncc(-c3ccc(C(N)=O)cc3)c2c1)N1C(=O)COc2cc(F)ccc21 (centres unmarked) [Example 66, 4-(5-(1-(7-fluoro-3-oxo-2H-benzo[b][1,4]oxazin-4(3H)-yl)ethyl)pyrazolo[1,5-a]pyridin-3-yl)benzamide] |
| 6750 | CC(=O)Nc1ccc(-c2cnn3ccc(C(C)N(C)c4ccc(C)cn4)cc23)cc1 (centres unmarked) [Example 68, N-(4-(5-(1-(methyl(5-methylpyridin-2-yl)amino)ethyl)pyrazolo[1,5-a]pyridin-3-yl)phenyl)acetamide] |
| 13 | CC(=O)Nc1ccc(-c2cnn3ccc(C(=O)N(C)c4ccc(C#N)cn4)cc23)cc1 [Example 69, 3-(4-acetamidophenyl)-N-(5-cyanopyridin-2-yl)-N-methylpyrazolo[1,5-a]pyridine-5-carboxamide] |
| 3 | NC(=O)c1ccc(-c2cnn3ccc(C(=O)N4CCOc5cc(F)ccc54)cc23)cc1 [Example 71, 4-(5-(7-fluoro-3,4-dihydro-2H-benzo[b][1,4]oxazine-4-carbonyl)pyrazolo[1,5-a]pyridin-3-yl)benzamide] |
| 5 | CC1COc2cc(F)ccc2N1C(=O)c1ccn2ncc(-c3ccc(C(N)=O)cc3)c2c1 (centres unmarked) [Example 72, 4-(5-(7-fluoro-3-methyl-3,4-dihydro-2H-benzo[b][1,4]oxazine-4-carbonyl)pyrazolo[1,5-a]pyridin-3-yl)benzamide] |
| > 10000 | CNC(=O)c1ccc(-c2cnn3ccc(C(=O)N4CCOc5cc(F)ccc54)cc23)cc1 [Example 73, 4-(5-(7-fluoro-3,4-dihydro-2H-benzo[b][1,4]oxazine-4-carbonyl)pyrazolo[1,5-a]pyridin-3-yl)-N-methylbenzamide] |
| 52 | CNC(=O)c1ccc(-c2cnn3ccc(C(=O)N4c5ccc(F)cc5OCC4C)cc23)cc1 (centres unmarked) [Example 74, 4-(5-(7-fluoro-3-methyl-3,4-dihydro-2H-benzo[b][1,4]oxazine-4-carbonyl)pyrazolo[1,5-a]pyridin-3-yl)-N-methylbenzamide] |
| 82 | CNC(=O)c1ccc(-c2cnn3ccc(C(=O)N(c4ccc(C#N)cn4)C4COC4)cc23)cc1 [Example 76, N-(5-cyanopyridin-2-yl)-3-(4-(methylcarbamoyl)phenyl)-N-(oxetan-3-yl)pyrazolo[1,5-a]pyridine-5-carboxamide] |
| 146 | CC(Cn1cccn1)N(C(=O)c1ccn2ncc(-c3ccc(C(N)=O)cc3)c2c1)c1ccc(C#N)cn1 (centres unmarked) [Example 77, N-(1-(1H-pyrazol-1-yl)propan-2-yl)-3-(4-carbamoylphenyl)-N-(5-cyanopyridin-2-yl)pyrazolo[1,5-a]pyridine-5-carboxamide] |
| 7 | CN(C(=O)c1ccn2ncc(-c3cnc(N)c(F)c3)c2c1)c1ccc(C#N)cc1 [Example 79, 3-(6-amino-5-fluoropyridin-3-yl)-N-(4-cyanophenyl)-N-methylpyrazolo[1,5-a]pyridine-5-carboxamide] |
| 824 | Cc1cc(-c2cnn3ccc(C(=O)N(C)c4ccc(C#N)cc4)cc23)cc(C)c1N [Example 80, 3-(4-amino-3,5-dimethylphenyl)-N-(4-cyanophenyl)-N-methylpyrazolo[1,5-a]pyridine-5-carboxamide] |
| 36 | Cc1cc(-c2cnn3ccc(C(=O)N(C)c4ccc(C#N)cc4)cc23)cnc1N [Example 81, 3-(6-amino-5-methylpyridin-3-yl)-N-(4-cyanophenyl)-N-methylpyrazolo[1,5-a]pyridine-5-carboxamide] |
